Laboratory results published in US20220242856A1, “CANNABINOID DERIVATIVES” (CANOPY GROWTH CORPORATION, priority 2019, published 2022).

Key:
human CB1 receptor [1] = target: T1, human CB1 receptor (Homo sapiens, UniProt P21554); assay: CB1 radioligand competitive binding assay ([3H]CP 55,940 displacement); details: for Selectivity CB1: fold difference in selectivity between CB1 and CB2 binding, printed in the column of the receptor with higher affinity, 1.00 = about the same affinity
T1 construct: host or cells: CHO-K1

human CB2 receptor = target: T2, human CB2 receptor (Homo sapiens, UniProt P34972); assay: CB2 radioligand competitive binding assay ([3H]CP 55,940 displacement); details: for Selectivity CB2: fold difference in selectivity between CB1 and CB2 binding, printed in the column of the receptor with higher affinity, 1.00 = about the same affinity
T2 construct: host or cells: CHO-K1
Method: Compounds of the present disclosure were tested for CB1 receptor binding affinity and for CB2 receptor binding affinity. As used herein, “binding affinity” is represented by the IC50 value, which was experimentally determined as described herein. The lower the IC50 value the higher the binding affinity. A compound of the present disclosure may be said to have “binding selectivity” if it has a higher binding affinity for one receptor compared to the other.
The membranes were prepared from CHO-K1 (Chinese hamster ovary) cells stably transfected with the human CB2 receptor (Cat.# ES-111-C; Perkin Elmer, Boston, Mass.). The cells were grown adherently and maintained in Ham's F12 medium containing 10% fetal bovine serum (FBS), penicillin, streptomycin and geneticin (G418) at 37° C. in a humid atmosphere of 5% CO2 following the manufacturer's instructions.
For membrane preparation the cells were washed with PBS and scraped off the plates in cold homogenization buffer (25 mM HEPES (pH 7.4), 2 mM EDTA) containing protease inhibitor cocktail (Sigma Cat.# P8340). The cell suspension was homogenized with a Pro-PK-01200D Polytron Homogenizer (Pro Scientific) and then centrifuged for 30 min at 120,000×g. The supernatant was discarded and the pellet was re-suspended in the homogenization buffer and stored at −80° C. until the time of use.
In this experiment, 3H radiolabeled CP 55,940, i.e. [3H]CP 55,940 (Perkin Elmer, Boston, Mass.), was used as a radioligand for the CB2 receptor to determine the binding affinity of compounds for the CB2 receptor (Scheme 7; above).
The competition binding experiments (single dose and dose-response) were performed by incubating 0.6 nM of [3H]CP55,940 (specific activity 101 Ci/mmol, Perkin Elmer) and different concentrations of compounds disclosed herein with membranes prepared as above from CHO-K1 cells expressing human CB2 receptor (1 μg of protein/well), 50 mM Tris-HCl (pH 7.4), 5 mM MgCl2, 1 mM CaCl2, and 2 mg/mL BSA.
For the single dose experiments, the compound stocks (usually 10 mM in DMSO) were diluted to working stocks in the binding buffer to give the final compound concentrations of 10 μM and 1 μM. For the dose-response experiments the test compounds were sequentially diluted to provide the desired concentration range for the IC50 determination. In each case the compounds were pre-incubated with the membrane for 20 min, before adding the radioligand.
After incubation with the radioligand for 60 min at 37° C., the incubation was terminated by rapid filtration of assay mixture through MultiScreen®HTS^+ 96-well filter plates (Millipore, Cat.# MSFCNXB), pre-soaked for 60 min with 50 mM Tris-HCl (pH 7.4) containing 0.33% polyethylenimine (PEI). The nonspecific binding (NSB) was determined in the presence of 10 μM unlabelled CP55,940. After drying the filter plate at 50° C. for at least 60 min, the filter-bound radioactivity was determined by scintillation spectrometry using the 1450 MicroBeta Plate Counter (Perkin Elmer, Boston, Mass.). From the dose-response experiments, the IC50 values were determined (see Table 1, CB2 IC50).

human CB1 receptor [2] = target: T1, human CB1 receptor; assay: PathHunter β-arrestin functional assay, CB1 receptor, agonist mode; assay type: cell-based; details: PathHunter CHO-K1 CNR1 β-Arrestin cells; normalized to CP55,940
Excerpt: (§1) In the PathHunter® β-Arrestin system from DiscoveRx (Eurofins, Fremont, Calif.), a small peptide, the ProLink™ (PK), is fused to the intracellular sequence of a GPCR target, and a complementing peptide, the enzyme acceptor (EA) fragment, is fused to β-arrestin. After binding to its specific ligand, the GPCR target recruits β-arrestin, forcing the complementation of the two β-galactosidase enzyme fragments (EA and PK) to produce a functional β-galactosidase enzyme. The enzyme activity, and thus the amount of ligand bound to the GPCR, is detected with a single addition of a reagent cocktail to lyse the cells and produce a chemiluminescent signal before being analyzed using a traditional plate reader.
(§2) PathHunter® CHO-K1 CNR1 β-Arrestin cells (DiscoverRx, cat. Number 93-0959C2) stably expressing CB1 receptor (CB1R) were grown in Ham's F12 medium containing 10% fetal bovine serum (FBS), 1% penicillin/streptomycin, 300 μg/mL Hygromycin B and 800 μg/mL geneticin (G418) and maintained in 37° C. incubators at 5% CO2. […]
(§3) The incubation was terminated by adding the detection reagent (19 parts of 1% CHAPS, 5 parts Emerald-II and 1 part Galacton-Star), equivalent to 50% of the assay volume to each wells. Plates were incubated for 1 hour in the dark at room temperature, followed by chemiluminescence detection using a microplate reader.
(§4) Data were analysed by generating nonlinear regression curves. […]

human CB1 receptor [3] = target: T1, human CB1 receptor; assay: PathHunter β-arrestin functional assay, CB1 receptor, antagonist mode; assay type: cell-based
Excerpt: as §1, §2, §3, §4

T1 sequence (P21554 whole entry): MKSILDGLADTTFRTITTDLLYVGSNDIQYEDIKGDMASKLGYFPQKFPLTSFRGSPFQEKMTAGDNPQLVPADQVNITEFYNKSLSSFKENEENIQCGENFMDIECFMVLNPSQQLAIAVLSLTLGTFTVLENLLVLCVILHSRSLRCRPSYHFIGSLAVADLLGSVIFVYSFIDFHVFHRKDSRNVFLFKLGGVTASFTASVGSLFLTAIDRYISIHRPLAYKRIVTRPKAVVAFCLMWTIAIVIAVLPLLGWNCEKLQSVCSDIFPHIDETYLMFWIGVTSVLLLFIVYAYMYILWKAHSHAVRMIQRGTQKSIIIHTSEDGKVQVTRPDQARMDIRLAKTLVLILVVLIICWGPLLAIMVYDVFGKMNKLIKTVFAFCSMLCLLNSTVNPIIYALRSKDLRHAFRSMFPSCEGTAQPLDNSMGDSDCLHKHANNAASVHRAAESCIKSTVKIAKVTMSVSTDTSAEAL
T2 sequence (P34972 whole entry): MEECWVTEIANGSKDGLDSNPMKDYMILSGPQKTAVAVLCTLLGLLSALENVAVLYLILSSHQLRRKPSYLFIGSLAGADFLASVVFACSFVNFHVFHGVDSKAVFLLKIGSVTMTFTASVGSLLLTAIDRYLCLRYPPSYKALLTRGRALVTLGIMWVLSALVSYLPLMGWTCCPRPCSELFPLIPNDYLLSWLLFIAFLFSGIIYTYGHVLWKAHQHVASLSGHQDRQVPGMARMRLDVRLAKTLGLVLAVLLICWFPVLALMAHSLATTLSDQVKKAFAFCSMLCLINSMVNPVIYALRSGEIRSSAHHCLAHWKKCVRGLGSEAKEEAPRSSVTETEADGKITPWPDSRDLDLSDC

SMILES	IC50 (human CB1 receptor [1]) [µM]	IC50 (human CB2 receptor) [µM]	Selectivity CB2 (human CB2 receptor) [fold]	activity towards the human CB1 receptor, agonist mode (human CB1 receptor [2])	Selectivity CB1 (human CB1 receptor [1]) [fold]	IC50 (human CB1 receptor [3]) [µM]
CCCCCc1cc2c(c(O)c1-c1cccnc1)[C@@H]1C=C(C)CC[C@H]1C(C)(C)O2 [Compound 12b, 6,6,9-trimethyl-3-pentyl-2-(pyridin-3-yl)-6a,7,8,10a-tetrahydro-6H-benzo[c]chromen-1-ol]	0.5 to 0.99	0.5 to 0.99	1.57	minimal to no activity	–	–
CCCCCc1cc2c(c(O)c1-c1cncnc1)[C@@H]1C=C(C)CC[C@H]1C(C)(C)O2 [Compound 13b, 6,6,9-trimethyl-3-pentyl-2-(pyrimidin-5-yl)-6a,7,8,10a-tetrahydro-6H-benzo [c] chromen-1-ol]	> 1	0.5 to 0.99	5.00	–	–	–
CCCCCc1cc2c(c(O)c1-c1ccncc1)[C@@H]1C=C(C)CC[C@H]1C(C)(C)O2 [Compound 14b, 6,6,9-trimethyl-3-pentyl-2-(pyridin-4-yl)-6a,7,8,10a-tetrahydro-6H-benzo[c]chromen-1-ol]	0.1 to 0.49	0.1 to 0.49	1.77	–	–	–
CCCCCc1cc2c(c(O)c1-c1ccco1)[C@@H]1C=C(C)CC[C@H]1C(C)(C)O2 [Compound 15b, 2-(furan-2-yl)-6,6,9-trimethyl-3-pentyl-6a,7,8,10a-tetrahydro-6H-benzo[c]chromen-1-ol]	< 0.1	< 0.1	1.00	–	1.00	–
CCCCCc1cc2c(c(O)c1-c1ccsc1)[C@@H]1C=C(C)CC[C@H]1C(C)(C)O2 [Compound 17b, 6,6,9-trimethyl-3-pentyl-2-(thiophen-3-yl)-6a,7,8,10a-tetrahydro-6H-benzo[c]chromen-1-ol]	0.1 to 0.49	< 0.1	3.43	–	–	–
CCCCCc1cc2c(c(O)c1-c1cncs1)[C@@H]1C=C(C)CC[C@H]1C(C)(C)O2 [Compound 18b]	> 1	> 1	1.00	–	1.00	–
CCCCCc1cc2c(c(O)c1-c1ccnn1C)[C@@H]1C=C(C)CC[C@H]1C(C)(C)O2 [Compound 33b, 6,6,9-trimethyl-2-(1-methyl-1H-pyrazol-5-yl)-3-pentyl-6a,7,8,10a-tetrahydro-6H-benzo[c]chromen-1-ol]	0.1 to 0.49	0.1 to 0.49	1.61	–	–	–
CCCCCc1cc2c(c(O)c1-c1cc3ccccc3o1)[C@@H]1C=C(C)CC[C@H]1C(C)(C)O2 [Compound 34b, 2-(benzofuran-2-yl)-6,6,9-trimethyl-3-pentyl-6a,7,8,10a-tetrahydro-6H-benzo[c]chromen-1-ol]	0.5 to 0.99	0.1 to 0.49	4.41	–	–	–
CCCCCc1cc2c(c(O)c1-c1cn[nH]c1)[C@@H]1C=C(C)CC[C@H]1C(C)(C)O2 [Compound 35b, 6,6,9-trimethyl-3-pentyl-2-(1H-pyrazol-4-yl)-6a,7,8,10a-tetrahydro-6H-benzo[c]chromen-1-ol]	> 1	0.5 to 0.99	2.64	–	–	–
CCCCCc1cc2c(c(O)c1-c1cc3ccccc3s1)[C@@H]1C=C(C)CC[C@H]1C(C)(C)O2 [Compound 36b, 2-(benzothiophen-2-yl)-6,6,9-trimethyl-3-pentyl-6a,7,8,10a-tetrahydrobenzo[c]chromen-1-ol]	> 1	0.1 to 0.49	5.67	minimal to no activity	–	~3
